Tested on: patients after acute myocardial infarction
Assay: TCM symptom score, total and single (chest pain, chest tightness, short breath, fatigue, palpitation, spontaneous perspiration, pale complexion), same clinical trial
Assay type: in vivo, human
Set-up: total score of TCM symptom, Mean / total score of TCM symptom, Min / total score of TCM symptom, Max / total score of TCM symptom, Md / change of total score of TCM symptom, Mean / change of total score of TCM symptom, Max / change of total score of TCM symptom, Md: scale not given here
Source text: 3508 patients who were in accordance with the diagnostic standards of AMI for 28 days to 2 years and differentiated as Qi deficiency and blood stagnation syndrome by TCM were studied. 0.5 g Chinese medicine composition prepared by the method of EXAMPLE 1 (Coded as QSYQ) was administrated half an hour after meal, 3 times per day.
They included the overall survival time, angina pectoris score, TCM symptom score and life quality score, where angina pectoris score, TCM symptom score and life quality score were evaluated at randomization, in 1st, 3rd, 6th, 9th, 12th month after treatment and 18th month after follow-up.
The analysis method referred to the angina pectoris score.

[1] = PP, 12 months after treatment-treatment
[2] = PP, 1 month after treatment-baseline

CC(=O)Oc1ccccc1C(=O)O [Control group, aspirine]
chest tightness score 2, percent of patients (Follow-up, FAS): (0.07%) | chest tightness score 3, number of patients (Follow-up, FAS): 479 | chest tightness score 3, percent of patients (Follow-up, FAS): (33.57%) | chest tightness score 6, number of patients (Follow-up, FAS): 192 | chest tightness score 6, percent of patients (Follow-up, FAS): (13.45%) | chest tightness score 9, number of patients (Follow-up, FAS): 1 | chest tightness score 9, percent of patients (Follow-up, FAS): (0.07%) | chest pain score 0, number of patients (Follow-up, PP): 733 | chest pain score 0, percent of patients (Follow-up, PP): (52.62%) | chest pain score 2, number of patients (Follow-up, PP): 1 | chest pain score 2, percent of patients (Follow-up, PP): (0.07%) | chest pain score 3, number of patients (Follow-up, PP): 472 | chest pain score 3, percent of patients (Follow-up, PP): (33.88%) | chest pain score 6, number of patients (Follow-up, PP): 186 | chest pain score 6, percent of patients (Follow-up, PP): (13.35%) | chest pain score 9, number of patients (Follow-up, PP): 1 | chest pain score 9, percent of patients (Follow-up, PP): (0.07%) | chest tightness score 0, number of patients (Follow-up, PP): 733 | chest tightness score 0, percent of patients (Follow-up, PP): (52.62%) | chest tightness score 2, number of patients (Follow-up, PP): 1 | chest tightness score 2, percent of patients (Follow-up, PP): (0.07%) | chest tightness score 3, number of patients (Follow-up, PP): 472 | chest tightness score 3, percent of patients (Follow-up, PP): (33.88%) | chest tightness score 6, number of patients (Follow-up, PP): 186 | chest tightness score 6, percent of patients (Follow-up, PP): (13.35%) | chest tightness score 9, number of patients (Follow-up, PP): 1 | chest tightness score 9, percent of patients (Follow-up, PP): (0.07%) | change of short breath 0, % of patients [1]: (53.11%) | change of short breath 2, % of patients [1]: (36.17%) | change of short breath 2, number of patients [1]: 506 | change of short breath 4, % of patients [1]: (4.50%) | change of short breath 4, number of patients [1]: 63 | change of short breath 6, % of patients [1]: (0.79%) | change of short breath 6, number of patients [1]: 11 | change of short breath −2, % of patients [1]: (5.36%) | change of short breath −2, number of patients [1]: 75 | change of short breath −4, % of patients [1]: (0.07%) | change of short breath −4, number of patients [1]: 1 | distribution of total score of TCM symptom: Medium, number of patients (PP, 1 month after treatment): 600 | distribution of total score of TCM symptom: Medium, percentage of patients (PP, 1 month after treatment): (41.04%) | distribution of total score of TCM symptom: Mild, number of patients (PP, 1 month after treatment): 847 | distribution of total score of TCM symptom: Mild, percentage of patients (PP, 1 month after treatment): (57.93%) | distribution of total score of TCM symptom: Severe, number of patients (PP, 1 month after treatment): 15 | distribution of total score of TCM symptom: Severe, percentage of patients (PP, 1 month after treatment): (1.03%) | fatigue score 0, % of patients (PP, 1 month after treatment): (23.62%) | fatigue score 0, number of patients (PP, 1 month after treatment): 346 | fatigue score 2, % of patients (PP, 1 month after treatment): (60.75%) | fatigue score 2, number of patients (PP, 1 month after treatment): 890 | fatigue score 4, % of patients (PP, 1 month after treatment): (14.40%) | fatigue score 4, number of patients (PP, 1 month after treatment): 211 | fatigue score 6, % of patients (PP, 1 month after treatment): (1.23%) | fatigue score 6, number of patients (PP, 1 month after treatment): 18 | pale complexion score 0, number of patients (PP, 1 month after treatment): 613 | pale complexion score 0, percent of patients (PP, 1 month after treatment): (41.81%) | pale complexion score 1, number of patients (PP, 1 month after treatment): 615 | pale complexion score 1, percent of patients (PP, 1 month after treatment): (41.95%) | pale complexion score 2, number of patients (PP, 1 month after treatment): 211 | pale complexion score 2, percent of patients (PP, 1 month after treatment): (14.39%) | pale complexion score 3, number of patients (PP, 1 month after treatment): 27 | pale complexion score 3, percent of patients (PP, 1 month after treatment): (1.84%) | palpitation score 0, number of patients (PP, 1 month after treatment): 353 | palpitation score 0, percent of patients (PP, 1 month after treatment): (24.11%) | palpitation score 1, number of patients (PP, 1 month after treatment): 1 | palpitation score 1, percent of patients (PP, 1 month after treatment): (0.07%) | palpitation score 2, number of patients (PP, 1 month after treatment): 713 | palpitation score 2, percent of patients (PP, 1 month after treatment): (48.70%) | palpitation score 4, number of patients (PP, 1 month after treatment): 351 | palpitation score 4, percent of patients (PP, 1 month after treatment): (23.98%) | palpitation score 6, number of patients (PP, 1 month after treatment): 46 | palpitation score 6, percent of patients (PP, 1 month after treatment): (3.14%) | short breath score 0, % of patients (PP, 1 month after treatment): (20.68%) | short breath score 0, number of patients (PP, 1 month after treatment): 303 | short breath score 3, % of patients (PP, 1 month after treatment): (53.72%) | short breath score 3, number of patients (PP, 1 month after treatment): 787 | short breath score 6, % of patients (PP, 1 month after treatment): (24.91%) | short breath score 6, number of patients (PP, 1 month after treatment): 365 | short breath score 9, % of patients (PP, 1 month after treatment): (0.68%) | short breath score 9, number of patients (PP, 1 month after treatment): 10 | spontaneous perspiration score 0, number of patients (PP, 1 month after treatment): 518 | spontaneous perspiration score 0, percent of patients (PP, 1 month after treatment): (35.36%) | spontaneous perspiration score 1, number of patients (PP, 1 month after treatment): 738 | spontaneous perspiration score 1, percent of patients (PP, 1 month after treatment): (50.38%) | spontaneous perspiration score 2, number of patients (PP, 1 month after treatment): 195 | spontaneous perspiration score 2, percent of patients (PP, 1 month after treatment): (13.31%) | spontaneous perspiration score 3, number of patients (PP, 1 month after treatment): 14 | spontaneous perspiration score 3, percent of patients (PP, 1 month after treatment): (0.96%) | total score of TCM symptom, Max (PP, 1 month after treatment): 34.00 | total score of TCM symptom, Md (PP, 1 month after treatment): 11.00 | total score of TCM symptom, Mean (PP, 1 month after treatment): 11.93 | total score of TCM symptom, Min (PP, 1 month after treatment): 0.00 | change of fatigue 0, % of patients [2]: (72.24%) | change of fatigue 0, number of patients [2]: 1054 | change of fatigue 1, % of patients [2]: (0.07%) | change of fatigue 1, number of patients [2]: 1 | change of fatigue 2, % of patients [2]: (17.82%) | change of fatigue 2, number of patients [2]: 260 | change of fatigue 4, % of patients [2]: (2.40%) | change of fatigue 4, number of patients [2]: 35 | change of fatigue 6, % of patients [2]: (0.82%) | change of fatigue 6, number of patients [2]: 12 | change of fatigue −2, % of patients [2]: (5.96%) | change of fatigue −2, number of patients [2]: 87 | change of fatigue −4, % of patients [2]: (0.62%) | change of fatigue −4, number of patients [2]: 9 | change of fatigue −6, % of patients [2]: (0.07%) | change of fatigue −6, number of patients [2]: 1 | change of pale complexion 0, number of patients [2]: 1275 | change of pale complexion 0, percent of patients [2]: (87.45%) | change of pale complexion 1, number of patients [2]: 131 | change of pale complexion 1, percent of patients [2]: (8.98%) | change of pale complexion −1, number of patients [2]: 52 | change of pale complexion −1, percent of patients [2]: (3.57%) | change of palpitation 0, number of patients [2]: 1051 | change of palpitation 0, percent of patients [2]: (71.99%) | change of palpitation 1, number of patients [2]: 295 | change of palpitation 1, percent of patients [2]: (20.21%) | change of palpitation 2, number of patients [2]: 22 | change of palpitation 2, percent of patients [2]: (1.51%) | change of palpitation 3, number of patients [2]: 4 | change of palpitation 3, percent of patients [2]: (0.27%) | change of palpitation −1, number of patients [2]: 87 | change of palpitation −1, percent of patients [2]: (5.96%) | change of palpitation −2, number of patients [2]: 1 | change of palpitation −2, percent of patients [2]: (0.07%)

Reference: patent publication US9211310B2, “Use of a Chinese medicine composition in preparing medicaments for treating secondary prevention of myocardial infarction” (TASLY PHARMACEUTICAL GROUP CO., LTD, priority 2010, dated 2015)
